Values of other authors as cited in patent publication US8324158B2, “Methods for inhibiting CLC-2 channel with GATX2” (Georgia Tech Research Corporation, priority 2006, dated 2012).

Target: ClC-1 (Homo sapiens, UniProt P35523)
Sequence (P35523 whole entry, species assumed): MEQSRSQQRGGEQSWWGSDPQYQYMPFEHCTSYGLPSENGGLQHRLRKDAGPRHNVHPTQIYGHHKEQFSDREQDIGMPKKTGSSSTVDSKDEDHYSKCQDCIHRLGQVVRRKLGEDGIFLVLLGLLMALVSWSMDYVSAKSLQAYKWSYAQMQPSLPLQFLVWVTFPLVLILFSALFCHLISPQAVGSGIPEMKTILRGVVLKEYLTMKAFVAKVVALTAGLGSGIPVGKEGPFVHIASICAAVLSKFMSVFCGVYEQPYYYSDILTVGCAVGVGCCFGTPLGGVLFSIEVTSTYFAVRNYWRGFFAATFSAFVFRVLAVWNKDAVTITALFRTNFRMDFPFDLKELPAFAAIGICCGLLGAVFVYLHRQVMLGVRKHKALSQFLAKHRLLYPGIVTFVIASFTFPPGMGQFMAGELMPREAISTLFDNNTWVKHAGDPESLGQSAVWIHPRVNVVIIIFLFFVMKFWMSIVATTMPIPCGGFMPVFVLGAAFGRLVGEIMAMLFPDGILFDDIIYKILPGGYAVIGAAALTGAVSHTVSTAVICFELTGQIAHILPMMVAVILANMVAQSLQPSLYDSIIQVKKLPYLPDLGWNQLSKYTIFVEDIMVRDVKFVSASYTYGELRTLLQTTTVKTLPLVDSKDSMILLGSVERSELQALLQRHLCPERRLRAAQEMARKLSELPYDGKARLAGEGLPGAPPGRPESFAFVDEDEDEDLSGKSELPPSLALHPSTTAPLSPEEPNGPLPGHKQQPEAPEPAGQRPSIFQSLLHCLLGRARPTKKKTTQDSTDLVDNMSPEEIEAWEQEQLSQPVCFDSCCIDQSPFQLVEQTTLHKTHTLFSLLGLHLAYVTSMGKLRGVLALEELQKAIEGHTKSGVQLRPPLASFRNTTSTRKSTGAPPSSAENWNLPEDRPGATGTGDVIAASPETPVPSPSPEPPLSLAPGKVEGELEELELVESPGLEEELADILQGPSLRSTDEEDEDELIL

## CC(Oc1ccc(Cl)cc1)C(=O)O (stereo not shown) [CPP]
  Kd: 15 µM
